From patent publication US20230303540A1 (Merck Sharp & Dohme LLC, priority 2020, published 2023) come the findings set out here.

In this experiment the target is GST-tagged truncated human mutant G2019S LRRK2 (Homo sapiens, UniProt Q5S007, G2019S). The experiment can be described thus: LRRK2 G2019S Km ATP LanthaScreen assay. Type of experiment: biochemical. The conditions noted are these: 134 μM ATP (Km ATP), LRRKtide substrate, mean IC50 values; read-out: LRRK2 pIC50 (converted). In outline:
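Compound preincubated 15 min at room temperature with enzyme in pH 8.5 Tris buffer (10 mM MgCl2). Then a 90 min reaction at ambient temperature with 134 μM (Km) ATP and fluorescein-LRRKtide. EDTA stop, Tb anti-phospho antibody TR-FRET; […]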
Take `CC1(O)CCN(c2cc3nc(Nc4cnn(C(C)(C)C#N)c4Cl)ncc3cc2Cl)CC1` [Ex-6.6, 2-(5-chloro-4-{[6-chloro-7-(4-hydroxy-4-methylpiperidin-1-yl)quinazolin-2-yl]amino}-1H-pyrazol-1-yl)-2-methylpropanenitrile]: the IC50 was 4.02 nM.

Take `Cc1cc(Nc2ncc3cc(Cl)c(N4CCC(C)(O)CC4)cc3n2)sn1` [Ex-6.8, 1-{6-chloro-2-[(3-methyl-1,2-thiazol-5-yl)amino]quinazolin-7-yl}-4-methylpiperidin-4-ol]: the IC50 was 16.3 nM. On to `CC1(O)CCN(c2cc3nc(Nc4cnn(C56CC(C5)C6)c4)ncc3cc2Cl)CC1` [Ex-6.11, 1-(2-{[1-(bicyclo[1.1.1]pentan-1-yl)-1H-pyrazol-4-yl]amino}-6-chloroquinazolin-7-yl)-4-methylpiperidin-4-ol], for which the IC50 was 0.808 nM. The result for `CC1(O)CCN(c2c(Cl)cc3cnc(Nc4cnn(C56CC(C5)C6)c4Cl)nc3c2Cl)CC1` [Ex-6.12, 1-(2-{[1-(bicyclo[1.1.1]pentan-1-yl)-5-chloro-1H-pyrazol-4-yl]amino}-6,8-dichloroquinazolin-7-yl)-4-methylpiperidin-4-ol] reads 1.24 nM. The value for `CO[C@H]1C[C@H](n2ncc(Nc3ncc4cc(Cl)c(N5CCC(C)(O)CC5)cc4n3)c2C)C1` [Ex-6.13, 1-(6-chloro-2-{[1-(trans-3-methoxycyclobutyl)-5-methyl-1H-pyrazol-4-yl]amino}quinazolin-7-yl)-4-methylpiperidin-4-ol] was 0.976 nM; that for `CO[C@H]1C[C@@H](n2ncc(Nc3ncc4cc(Cl)c(N5CCC(C)(O)CC5)cc4n3)c2C)C1` [Ex-6.14, 1-(6-chloro-2-{[1-(cis-3-methoxycyclobutyl)-5-methyl-1H-pyrazol-4-yl]amino}quinazolin-7-yl)-4-methylpiperidin-4-ol] was 1.65 nM; that for `Cc1c(Nc2ncc3cc(Cl)c(N4CCC(C)(O)CC4)cc3n2)cnn1C(C)(C)C#N` [Ex-6.15, 2-(4-{[6-chloro-7-(4-hydroxy-4-methylpiperidin-1-yl)quinazolin-2-yl]amino}-5-methyl-1H-pyrazol-1-yl)-2-methylpropanenitrile] was 3.57 nM.

Turning to `FC12CC(n3ncc(Nc4ncc5cc(Cl)c(N6CCNCC6)cc5n4)c3Cl)(C1)C2` [Ex-6.55, 6-chloro-N-(5-chloro-1-(3-fluorobicyclo[1.1.1]pentan-1-yl)-1H-pyrazol-4-yl)-7-(piperazin-1-yl)quinazolin-2-amine], the IC50 is 2.11 nM. Consider `C[C@@]1(N2CCN(c3cc4nc(Nc5cnn(C6CC6)c5C(F)F)ncc4cc3Cl)CC2)COC[C@@H]1O` [Ex-6.56, (3R,4R)-4-(4-(6-chloro-2-((1-cyclopropyl-5-(difluoromethyl)-1H-pyrazol-4-yl)amino)quinazolin-7-yl)piperazin-1-yl)-4-methyltetrahydrofuran-3-ol], for which the IC50 is 0.08 nM. The value for `CCn1ncc(Nc2ncc3ccc(N4C(=O)OC[C@@H]4C)cc3n2)c1C` [Ex-7.1, (S)-3-(2-((1-ethyl-5-methyl-1H-pyrazol-4-yl)amino)quinazolin-7-yl)-4-methyloxazolidin-2-one] was 0.989 nM; that for `C[C@H]1COC(=O)N1c1ccc2cnc(Nc3cnn([C@@H]4CCN(C5COC5)C[C@H]4F)c3Cl)nc2c1` [Ex-7.2, (4S)-3-[2-({5-chloro-1-[(3R,4R)-3-fluoro-1-(oxetan-3-yl)piperidin-4-yl]-1H-pyrazol-4-yl}amino)quinazolin-7-yl]-4-methyl-1,3-oxazolidin-2-one] was 0.625 nM.

For the compound `Cc1nn(C2C[C@@H](C)O[C@@H](C)C2)cc1Nc1ncc2ccc(N3C(=O)OC[C@@H]3C)cc2n1` (stereo partly drawn) [Ex-7.5, (4S)-3-[2-({1-[(2R,6S)-2,6-dimethyloxan-4-yl]-3-methyl-1H-pyrazol-4-yl}amino)quinazolin-7-yl]-4-methyl-1,3-oxazolidin-2-one], the IC50 was 33.7 nM.

`C[C@H]1COC(=O)N1c1ccc2cnc(Nc3cn(C)nc3C(F)(F)F)nc2c1` [Ex-7.7, (4S)-4-methyl-3-(2-{[1-methyl-3-(trifluoromethyl)-1H-pyrazol-4-yl]amino}quinazolin-7-yl)-1,3-oxazolidin-2-one]: the IC50 is 1.92 nM. Consider `Cc1nsc(Nc2ncc3ccc(N4C(=O)OC[C@@H]4C)cc3n2)c1C1CC1` [Ex-7.8, (4S)-3-{2-[(4-cyclopropyl-3-methyl-1,2-thiazol-5-yl)amino]quinazolin-7-yl}-4-methyl-1,3-oxazolidin-2-one], for which the IC50 is 11 nM. The value for `Cn1cc(Nc2ncc3ccc(N4C(=O)C5CCC4C5)cc3n2)c(C(F)(F)F)n1` (stereo not shown) [Ex-7.9, 2-(2-{[1-methyl-3-(trifluoromethyl)-1H-pyrazol-4-yl]amino}quinazolin-7-yl)-2-azabicyclo[2.2.1]heptan-3-one] was 34 nM; that for `Cn1cc(Nc2ncc3ccc(N4C(=O)C5CCC4C5)cc3n2)c(C(F)(F)F)n1` (stereo not shown) [Ex-7.10, 2-(2-{[1-methyl-3-(trifluoromethyl)-1H-pyrazol-4-yl]amino}quinazolin-7-yl)-2-azabicyclo[2.2.1]heptan-3-one] was 5.14 nM; that for `Cc1c(Nc2ncc3ccc(N4C(=O)OC[C@H]4C)cc3n2)cnn1C1CCOCC1` [Ex-7.11, (4R)-4-methyl-3-(2-{[5-methyl-1-(oxan-4-yl)-1H-pyrazol-4-yl]amino}quinazolin-7-yl)-1,3-oxazolidin-2-one] was 9.35 nM.

Regarding `Cc1nsc(Nc2ncc3ccc(N4C(=O)OC[C@@H]4C)cc3n2)c1C` [Ex-7.12, (4S)-3-{2-[(3,4-dimethyl-1,2-thiazol-5-yl)amino]quinazolin-7-yl}-4-methyl-1,3-oxazolidin-2-one], the IC50 was 0.625 nM.

For the compound `CCn1ncc(Nc2ncc3ccc(N4C(=O)C5CCC4C5)cc3n2)c1C` (stereo not shown) [Ex-7.19, 2-{2-[(1-ethyl-5-methyl-1H-pyrazol-4-yl)amino]quinazolin-7-yl}-2-azabicyclo[2.2.1]heptan-3-one], the IC50 was 2.53 nM. The value for `CCn1ncc(Nc2ncc3ccc(N4C(=O)C5CCC4C5)cc3n2)c1C` (stereo not shown) [Ex-7.20, 2-{2-[(1-ethyl-5-methyl-1H-pyrazol-4-yl)amino]quinazolin-7-yl}-2-azabicyclo[2.2.1]heptan-3-one] was 11.3 nM; that for `C[C@H]1COC(=O)N1c1ccc2cnc(Nc3cnn(CC(F)(F)F)c3)nc2c1` [Ex-7.21, (4S)-4-methyl-3-(2-{[1-(2,2,2-trifluoroethyl)-1H-pyrazol-4-yl]amino}quinazolin-7-yl)-1,3-oxazolidin-2-one] was 0.625 nM. Consider `Cc1cc(Nc2ncc3ccc(N4C(=O)OC[C@@H]4C)cc3n2)n(C)n1` [Ex-8.1, (4S)-3-{2-[(1,3-dimethyl-1H-pyrazol-5-yl)amino]quinazolin-7-yl}-4-methyl-1,3-oxazolidin-2-one], for which the IC50 is 4.41 nM. The result for `C[C@H]1COC(=O)N1c1ccc2cnc(Nc3cnsc3)nc2c1` [Ex-8.7, (4S)-4-methyl-3-{2-[(1,2-thiazol-4-yl)amino]quinazolin-7-yl}-1,3-oxazolidin-2-one] reads 5.2 nM; that for `C[C@H]1COC(=O)N1c1ccc2cnc(Nc3ccns3)nc2c1` [Ex-8.8, (4S)-4-methyl-3-{2-[(1,2-thiazol-5-yl)amino]quinazolin-7-yl}-1,3-oxazolidin-2-one], 5.08 nM. Regarding `CC(C)c1cc(Nc2ncc3ccc(N4C(=O)OC[C@@H]4C)cc3n2)ns1` [Ex-8.9, (4S)-4-methyl-3-(2-{[5-(propan-2-yl)-1,2-thiazol-3-yl]amino}quinazolin-7-yl)-1,3-oxazolidin-2-one], the IC50 is 8.03 nM. For `C[C@H]1COC(=O)N1c1ccc2cnc(Nc3cc(C(C)(C)C)ns3)nc2c1` [Ex-8.10, (4S)-3-{2-[(3-tert-butyl-1,2-thiazol-5-yl)amino]quinazolin-7-yl}-4-methyl-1,3-oxazolidin-2-one], the IC50 was 0.625 nM. Regarding `C[C@@H]1CN(C2COC2)CC[C@@H]1n1ncc(Nc2ncc3ccc(N4C(=O)OC[C@@H]4C)cc3n2)c1Cl` [Ex-8.11, (4.5)-3-[2-({5-chloro-1-[(3R,4S)-3-methyl-1-(oxetan-3-yl)piperidin-4-yl]-1H-pyrazol-4-yl}amino)quinazolin-7-yl]-4-methyl-1,3-oxazolidin-2-one], the IC50 is 1.59 nM.

For the compound `C[C@H]1COC(=O)N1c1ccc2cnc(Nc3cn(C)nc3C(F)F)nc2c1` [Ex-8.12, (4S)-3-(2-{[3-(difluoromethyl)-1-methyl-1H-pyrazol-4-yl]amino}quinazolin-7-yl)-4-methyl-1,3-oxazolidin-2-one], the IC50 was 1.63 nM.

With `C[C@H]1COC(=O)N1c1ccc2cnc(Nc3cnn4c3CCCC4)nc2c1` [Ex-8.13, (4S)-4-methyl-3-{2-[(4,5,6,7-tetrahydropyrazolo[1,5-a]pyridin-3-yl)amino]quinazolin-7-yl}-1,3-oxazolidin-2-one], the IC50 is 0.625 nM. For the compound `Cc1nsc(Nc2ncc3ccc(N4C(=O)C5CCC4C5)cc3n2)c1C` (stereo not shown) [Ex-8.14, 2-{2-[(3,4-dimethyl-1,2-thiazol-5-yl)amino]quinazolin-7-yl}-2-azabicyclo[2.2.1]heptan-3-one], the IC50 is 7.79 nM. As for `Cc1nsc(Nc2ncc3ccc(N4C(=O)C5CCC4C5)cc3n2)c1C` (stereo not shown) [Ex-8.15, 2-{2-[(3,4-dimethyl-1,2-thiazol-5-yl)amino]quinazolin-7-yl}-2-azabicyclo[2.2.1]heptan-3-one], the IC50 was 2.59 nM. Regarding `C[C@H]1COC(=O)N1c1ccc2cnc(Nc3cn(C4CCCCC4)nc3Cl)nc2c1` [Ex-10.1, (S)-3-(2-((3-Chloro-1-cyclohexyl-1H-pyrazol-4-yl)amino)quinazolin-7-yl)-4-methyloxazolidin-2-one], the IC50 is 7.01 nM.

As for `CN1CCN(c2cc3nc(Nc4cnn(C)c4Cl)ncc3cc2Cl)CC1` [Ex-11.1, 6-Chloro-N-(5-chloro-1-methyl-1H-pyrazol-4-yl)-7-(4-methylpiperazin-1-yl)quinazolin-2-amine], the IC50 is 11.7 nM. The value for `CC1(N2CCN(c3cc4nc(Nc5cnn(C6(C)CC6)c5Cl)ncc4cc3Cl)CC2)CCOC1` (stereo not shown) [Ex-12.4] was 3.04 nM.
